Here are results for 59 molecules from US8735391B2, “Synthesis of functionalized octahydro-isoquinolin-1-one-8-carboxamides, octahydro-isoquinolin-1-one-8-carboxylic esters and analogs, and therapeutic methods” (University of Kansas, priority 2008, dated 2014).

Where two headings read alike, the source gives them in different places.

One assay has as its target KOR (Homo sapiens, UniProt P41145). Briefly: Opioid secondary binding, KOR (Tables 4, 5, 8, 9).
The target in a further assay is DOR (Homo sapiens, UniProt P41143). Briefly: Opioid secondary binding, DOR (Table 4). To be noted: Opioid secondary binding activity for Formula 10 analogs.
Sequence of DOR (P41143 whole entry): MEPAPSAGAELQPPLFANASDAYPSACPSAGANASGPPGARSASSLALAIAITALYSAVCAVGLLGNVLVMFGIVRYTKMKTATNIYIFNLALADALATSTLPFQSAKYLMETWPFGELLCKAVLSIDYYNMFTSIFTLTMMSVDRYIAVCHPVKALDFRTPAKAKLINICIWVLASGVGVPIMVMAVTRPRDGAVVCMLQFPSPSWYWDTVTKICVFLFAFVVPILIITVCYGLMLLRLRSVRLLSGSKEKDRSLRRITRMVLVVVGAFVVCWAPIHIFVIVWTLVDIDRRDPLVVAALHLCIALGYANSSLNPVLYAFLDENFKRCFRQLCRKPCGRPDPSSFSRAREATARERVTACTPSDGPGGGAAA
The mark [1] stands for this setting: Opioid secondary binding activity for Formula 10 analogs, read-out: KOR, Ki.

Sequence of KOR (P41145 whole entry): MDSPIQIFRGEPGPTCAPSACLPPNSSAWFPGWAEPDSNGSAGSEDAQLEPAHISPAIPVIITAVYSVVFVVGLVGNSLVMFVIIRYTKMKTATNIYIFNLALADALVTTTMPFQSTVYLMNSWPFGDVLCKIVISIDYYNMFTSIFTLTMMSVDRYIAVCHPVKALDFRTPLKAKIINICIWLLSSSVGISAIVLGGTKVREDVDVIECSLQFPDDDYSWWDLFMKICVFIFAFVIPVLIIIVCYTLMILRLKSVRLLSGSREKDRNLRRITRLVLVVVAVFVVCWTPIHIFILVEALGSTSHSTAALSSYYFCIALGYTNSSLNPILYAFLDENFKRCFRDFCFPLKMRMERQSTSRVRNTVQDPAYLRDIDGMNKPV

Regarding `O=C(Nc1ccc(C(F)(F)F)cc1)[C@@H]1CC=C[C@@H]2CCN(c3ccccc3)C(=O)[C@@H]21` (racemic) [compound 10822], the Ki (usually a dissociation constant, usually derived from enzyme kinetics or from competition with a known ligand) at KOR (setting [1]) worked out at 786 nM.
Consider `CCOC(=O)CCC(NC(=O)C1CC=CC2CCN(C3CCCCC3)C(=O)C21)C(=O)OCC` (mixture of isomers) [compound 11821], for which, at KOR (setting [1]), the inhibitory constant (Ki) was found to be 4710 nM.
In the case of `CN(C)C(=O)[C@@H]1CC=C[C@@H]2CCN(C3CCCCC3)C(=O)[C@@H]21` (racemic) [compound 12086], the Ki at DOR is > 10000 nM.
`O=C(Nc1ccccc1)[C@@H]1CC=C[C@@H]2CN(C3CCCCC3)C(=O)[C@@H]21` (racemic) [compound 14435] registered an inhibition constant Ki at DOR of 1610 nM.
As to `O=C(Nc1ccc(Cl)c(C(F)(F)F)c1)C1CCCC2CCN(C3CCCCC3)C(=O)C21` (racemic) [compound 11479], the inhibition constant (Ki) at KOR (setting [1]) turned out to be 792 nM.
Consider `CCOC(=O)c1ccc(NC(=O)[C@@H]2CC=C[C@@H]3CCN(Cc4ccccc4)C(=O)[C@@H]32)cc1` (racemic) [compound 12124], for which the Ki on DOR is 7820 nM.
As for `CC(c1ccccc1)N1CCC2C=CCC(C(=O)Nc3nccs3)C2C1=O` (mixture of isomers) [compound 12168], the affinity at DOR corresponds to a Ki of 1450 nM.
On to `O=C(Nc1ccc(Cl)cc1C(F)(F)F)[C@@H]1CC=C[C@@H]2CCN(C3CCCCC3)C(=O)[C@@H]21` (racemic) [compound 11858], for which the Ki on KOR (setting [1]) was found to be 866 nM.
For `O=C1NCC[C@H]2C=CC[C@@H](C(=O)Nc3ccc(Cl)c(C(F)(F)F)c3)[C@@H]12` (racemic) [compound 11896], the Ki on KOR (setting [1]) amounted to 729 nM.
Turning to `O=C(NC1CCCCC1)[C@@H]1CC=C[C@@H]2CCN(CC3CCCCC3)C(=O)[C@@H]21` (racemic) [compound 11886], at KOR (setting [1]), the Ki turned out to be 177 nM.
At DOR, `COc1ccc(-c2cccc(CN3CC[C@H]4C=CC[C@@H](C(=O)Nc5ccc(Cl)c(C(F)(F)F)c5)[C@H]4C3=O)c2)cc1` (racemic) [compound 12161] returned an inhibition constant (Ki) of 2130 nM.
Turning to `O=C(Nc1ccc(Cl)cc1Cl)[C@@H]1CC=C[C@@H]2CCN(CCc3ccccc3)C(=O)[C@@H]21` (racemic) [compound 10834], at KOR (setting [1]), the Ki came to 6480 nM.
For the molecule `Cc1cc(C)c(NC(=O)[C@@H]2CC=C[C@@H]3CCN(CC4CC4)C(=O)[C@@H]32)c(C)c1` (racemic) [compound 11945], the Ki on DOR is > 10000 nM.
On to `CCOC(=O)C1CCCCN1C(=O)[C@@H]1CC=C[C@@H]2CCN(Cc3ccccc3)C(=O)[C@@H]21` (mixture of isomers) [compound 12127], for which, at DOR, the Ki is > 10000 nM.
On to `O=C(NCC1CC1)[C@@H]1CC=C[C@@H]2CCN(Cc3ccccc3)C(=O)[C@@H]21` (racemic) [compound 12100], for which the affinity at DOR corresponds to a Ki of 539 nM.
The molecule `O=C(Nc1cccnc1)[C@@H]1CC=C[C@@H]2CCN(C3CCCCC3)C(=O)[C@@H]21` (racemic) [compound 11921] displayed an inhibition constant (Ki) at DOR of 836 nM.
Still for that read-out and setting: the figure for `O=C(NC1CCCCC1)[C@@H]1CC=C[C@@H]2CCCN(C3CCCCC3)C(=O)[C@@H]21` (racemic) [compound 14424] is 1690 nM.
Consider `O=C(Nc1ccc(F)c(F)c1)[C@@H]1CC=C[C@@H]2CCN(CC3CCCCC3)C(=O)[C@@H]21` (racemic) [compound 11889], for which the inhibition constant (Ki) on KOR (setting [1]) stood at 131 nM.
For `O=C(NCc1ccc(Cl)c(C(F)(F)F)c1)[C@@H]1CC=C[C@@H]2CCN(C3CCCCC3)C(=O)[C@@H]21` (racemic) [compound 11856], at KOR (setting [1]), the Ki amounted to 531 nM.
On the same count and under the same terms, the figure for `COC(=O)C(C)NC(=O)C1CC=CC2CCN(Cc3ccccc3)C(=O)C21` (mixture of isomers) [compound 11818] is 6170 nM; for `O=C(Nc1ccccc1)[C@@H]1CC=C[C@@H]2CCN(CC3CCCCC3)C(=O)[C@@H]21` (racemic) [compound 11887] it is 187 nM; for `CC(NC(=O)C1CC=CC2CCN(Cc3ccccc3)C(=O)C21)c1ccccc1` (mixture of isomers) [compound 11854] it is 712 nM.
On to `O=C(Nc1ccc(F)c(F)c1)[C@@H]1CC=C[C@@H]2CCN(c3ccccc3)C(=O)[C@@H]21` (racemic) [compound 10823], for which the Ki at KOR (setting [1]) is 375 nM.
Regarding `O=C(Nc1ccc([N+](=O)[O-])c(C(F)(F)F)c1)[C@@H]1CC=C[C@@H]2CCN(C3CCCCC3)C(=O)[C@@H]21` (racemic) [compound 11920], the inhibition constant Ki on KOR (setting [1]) was 5110 nM.
With `O=C(Nc1ccc(C(F)(F)F)cc1Cl)[C@@H]1CC=C[C@@H]2CCN(c3ccccc3)C(=O)[C@@H]21` (racemic) [compound 11865], the inhibition constant (Ki) at KOR (setting [1]) turned out to be 180 nM.
As for `CC(C)N1CCC2C=CCC(C(=O)Nc3cccc(Cl)c3)C2C1=O` (racemic) [compound 10844], the inhibition constant Ki on KOR (setting [1]) is 2130 nM.
Consider `O=C(Nc1ccc(F)cc1)[C@@H]1CC=C[C@@H]2CCN(Cc3ccccc3)C(=O)[C@@H]21` (racemic) [compound 11909], for which the inhibitory constant (Ki) on KOR (setting [1]) is 276 nM.
Regarding `COC(=O)C(CCSC)NC(=O)C1CC=CC2CCN(C3CCCCC3)C(=O)C21` (mixture of isomers) [compound 11822], on KOR (setting [1]), the Ki stood at 4500 nM.
With `O=C(Nc1c(F)cccc1F)[C@@H]1CC=C[C@@H]2CCN(c3ccccc3)C(=O)[C@@H]21` (racemic) [compound 10824], the inhibitory constant (Ki) on KOR (setting [1]) turned out to be 5000 nM.
Take `Cc1ccc(NC(=O)[C@@H]2CC=C[C@@H]3CCN(C4CCCCC4)C(=O)[C@@H]32)cc1Cl` (racemic) [compound 11919]: the Ki on KOR (setting [1]) came to 102 nM.
For the molecule `O=C(Nc1ccc(Br)c(C(F)(F)F)c1)[C@@H]1CC=C[C@@H]2CCN(C3CCCCC3)C(=O)[C@@H]21` (racemic) [compound 11857], the Ki at KOR (setting [1]) stood at 814 nM.
As for `O=C(Nc1ccc(C(F)(F)F)cc1Cl)[C@@H]1CC=C[C@@H]2CCN(CCc3ccccc3)C(=O)[C@@H]21` (racemic) [compound 11877], at KOR (setting [1]), the inhibition constant (Ki) was 3300 nM.
As to `O=C(Nc1cccc(Cl)c1)[C@@H]1CC=C[C@@H]2CCN(c3ccccc3)C(=O)[C@@H]21` (racemic) [compound 10821], the Ki on KOR (setting [1]) is 420 nM.
Take `O=C(Nc1c(F)c(F)c(F)c(F)c1F)[C@@H]1CC=C[C@@H]2CCN(Cc3ccccc3)C(=O)[C@@H]21` (racemic) [compound 14309]: the inhibition constant Ki on KOR (setting [1]) stood at 2970 nM.
With `CC(C)N1CCC2C=CCC(C(=O)Nc3ccc(F)c(F)c3)C2C1=O` (racemic) [compound 10847], the Ki on KOR (setting [1]) amounted to 4200 nM.
With `CC(NC(=O)C1CC=CC2CCN(CCc3ccccc3)C(=O)C21)c1ccccc1` (mixture of isomers) [compound 11848], at KOR (setting [1]), the Ki stood at 3490 nM.
For `CC(C)N1CCC2C=CCC(C(=O)Nc3ccc(Cl)c(C(F)(F)F)c3)C2C1=O` (racemic) [compound 10849], the inhibition constant (Ki) on KOR (setting [1]) is 261 nM.
Turning to `O=C(NCc1ccccc1)[C@@H]1CC=C[C@@H]2CCN(C3CCCCC3)C(=O)[C@@H]21` (racemic) [compound 11918], the Ki at KOR (setting [1]) stood at 358 nM.
In the case of `CC(C)N1CCC2C=CCC(C(=O)Nc3cccc(C(F)(F)F)c3)C2C1=O` (racemic) [compound 10846], on KOR (setting [1]), the Ki turned out to be 621 nM.
As to `O=C(Nc1ccc(Cl)cc1Cl)[C@@H]1CC=C[C@@H]2CCN(c3ccccc3)C(=O)[C@@H]21` (racemic) [compound 10826], the Ki on KOR (setting [1]) stood at 287 nM.
Still for that read-out and setting: the figure for `O=C(OCc1ccccc1)C1CCCN1C(=O)C1CC=CC2CCN(Cc3ccc(Cl)cc3)C(=O)C21` (mixture of isomers) [compound 11808] is 2290 nM; for `O=C(Nc1ccc(C(F)(F)F)cc1)C1CC=CC2CCN(Cc3ccc(Cl)cc3)C(=O)C21` (racemic) [compound 10837] it is 2530 nM.
Same read-out and setting: the figure for `COC(=O)C(CCSC)NC(=O)C1CC=CC2CCN(Cc3ccccc3)C(=O)C21` (mixture of isomers) [compound 11816] is 2630 nM; for `O=C(OCc1ccccc1)C(Cc1ccccc1)NC(=O)C1CC=CC2CCN(C3CCCCC3)C(=O)C21` (mixture of isomers) [compound 11825] it is 1110 nM; for `Cc1cc(NC(=O)[C@@H]2CC=C[C@@H]3CCN(C4CCCCC4)C(=O)[C@@H]32)ccc1Cl` (racemic) [compound 11860] it is 716 nM.
Consider `O=C(OCc1ccccc1)C(Cc1ccccc1)NC(=O)C1CC=CC2CCN(Cc3ccccc3)C(=O)C21` (mixture of isomers) [compound 11819], for which, on KOR (setting [1]), the Ki was found to be 1290 nM.
As to `O=C(Nc1ccc(F)c(F)c1)C1CC=CC2CCN(Cc3ccc(Cl)cc3)C(=O)C21` (racemic) [compound 10839], on KOR (setting [1]), the Ki was found to be 652 nM.
Turning to `O=C(Nc1ccc(Cl)c(C(F)(F)F)c1)C1CC=CC2CCN(Cc3ccc(Cl)cc3)C(=O)C21` (racemic) [compound 10841], at KOR (setting [1]), the Ki amounted to 465 nM.
The same measure, in the same setting: the figure for `COc1cccc(F)c1CN1CC[C@H]2C=CC[C@@H](C(=O)Nc3ccc(C)c(F)c3F)[C@H]2C1=O` (racemic) [compound 13485] is 5120 nM; for `O=C(Nc1cccc(Cl)c1)[C@@H]1CC=C[C@@H]2CCN(Cc3ccc(Cl)cc3)C(=O)[C@@H]21` (racemic) [compound 10836] it is 225 nM.
As to `O=C(Nc1ccc(Cl)c(C(F)(F)F)c1)[C@@H]1CC=C[C@@H]2CCN(CC3CCCCC3)C(=O)[C@@H]21` (racemic) [compound 11890], the Ki at KOR (setting [1]) is 840 nM.
Consider `CC(C)N1CCC2C=CCC(C(=O)Nc3ccc(Cl)cc3Cl)C2C1=O` (racemic) [compound 10850], for which the Ki at KOR (setting [1]) was determined as 2410 nM.
`COc1ccc(NC(=O)[C@@H]2CC=C[C@@H]3CCN(Cc4ccc(Cl)cc4)C(=O)[C@@H]32)cc1` (racemic) [compound 10835]: the Ki at KOR (setting [1]) was 5070 nM.
Still for that read-out and setting: the figure for `O=C(OCc1ccccc1)C(Cc1ccccc1)NC(=O)C1CC=CC2CCN(CCc3ccccc3)C(=O)C21` (mixture of isomers) [compound 11831] is 1520 nM; for `O=C(O)C(Cc1ccccc1)NC(=O)C1CC=CC2CCN(Cc3ccccc3)C(=O)C21` (mixture of isomers) [compound 11902] it is 3380 nM; for `CC(NC(=O)C1CC=CC2CCN(C3CCCCC3)C(=O)C21)c1ccccc1` (mixture of isomers) [compound 11836] it is 599 nM.
As to `O=C(Nc1ccccc1)[C@@H]1CC=C[C@@H]2CCN(Cc3ccccc3)C(=O)[C@@H]21` [compound 11793], on KOR (setting [1]), the inhibitory constant (Ki) came to 1610 nM.
At KOR, `O=C(NC1CCCCC1)[C@@H]1CC=C[C@@H]2CCN(Cc3ccccc3)C(=O)[C@@H]21` [compound 11791] registered an inhibition constant Ki of 1300 nM.
With `O=C(Nc1cccc(C(F)(F)F)c1)C1CC=CC2CCN(Cc3ccc(Cl)cc3)C(=O)C21` (racemic) [compound 10838], on KOR (setting [1]), the Ki is 1510 nM.
